Entries after “also recorded” stand apart in the source; their conditions may differ. Like-named read-outs stand apart in the source and are kept apart here.
How the values were obtained:
cytochrome 450 = test: Metabolism by cytochrome 450 mechanisms; type: in vitro ADME
[1] = tested on: drug-resistant HCV genotype 1b replicons (NS3, NS5A, NS5B)
Procedure: (§1) The in vitro antiviral of miravirsen was evaluated against wild-type HCV genotype 1b replicon and HCV genotype 1b replicons constructed to contain key amino acid substitutions in NS3 protease (A156T, R155K), NS5B polymerase (S282T, M423I) and NS5A protein (Y93H) in transient transfection assays utilizing Huh 7 cells. […] Huh 7 cells were transfected with either the wild-type or the mutant RNA constructs by electroporation. Luciferase activity was measured 72 hours after compound treatment and EC50 values determined from dose-response curves. Fold resistance was expressed as the ratio of the EC50 for mutant HCV replicon to the EC50 for wild-type HCV replicon.
The in vitro antiviral of miravirsen was evaluated against wild-type HCV genotype 1b replicon and HCV replicons constructed to contain key amino acid substitutions in NS3 protease (A156T, R155K), NS5B polymerase (S282T, M423I) and NS5A protein (Y93H) in transient transfection assays. […] Huh 7 cells were transfected with either the wild type or the mutant RNA constructs by electroporation. Luciferase activity was measured 72 hours after compound treatment and EC50 values determined from dose-response curves. Fold resistance was expressed as the ratio of the EC50 for mutant HCV replicon to the EC50 for wild-type HCV replicon. Results are expressed as the mean of two individual experiments. […]

[2] = compared with interferon alpha-2b
all HCV genotypes = test: Activity against HCV genotypes in vitro; type: cell-based
HCV = HCV RNA suppression in vivo
[3] = tested on: HCV genotype 1b replicon NS5B S282T; type: cell-based; conditions: EC50 mutant / EC50 wild-type; mean of two experiments (individual values)
Procedure: as §1
(§2) The in vitro antiviral of miravirsen was evaluated against wild-type HCV genotype 1b replicon and HCV replicons constructed to contain key amino acid substitutions in NS3 protease (A156T, R155K), NS5B polymerase (S282T, M423I) and NS5A protein (Y93H) in transient transfection assays. […] Huh 7 cells were transfected with either the wild type or the mutant RNA constructs by electroporation. Luciferase activity was measured 72 hours after compound treatment and EC50 values determined from dose-response curves. Fold resistance was expressed as the ratio of the EC50 for mutant HCV replicon to the EC50 for wild-type HCV replicon. Results are expressed as the mean of two individual experiments. In an initial set of experiments, the standard protocol was modified by adding compounds 24 hours after electroporation. […] In a third experiment cells were pretreated with miravirsen for 24 hours before electroporation with wild-type RNA constructs to determine if preincubation could result in increased miravirsen antiviral activity.

[4] = tested on: HCV genotype 1b replicon NS5A Y93H; type: cell-based; conditions: EC50 mutant / EC50 wild-type; mean of two experiments (individual values)
Procedure: as §1, §2

[5] = tested on: HCV genotype 1b replicon NS3 R155K; type: cell-based; conditions: EC50 mutant / EC50 wild-type, mean of two experiments (individual values)
Procedure: as §1, §2

[6] = tested on: HCV genotype 1b replicon NS5B M423I; type: cell-based; conditions: EC50 mutant / EC50 wild-type; mean of two experiments (individual values)
Procedure: as §1, §2

[7] = tested on: HCV genotype 1b replicon NS3 A156T; type: cell-based; conditions: EC50 mutant / EC50 wild-type, mean of two experiments (individual values)
Procedure: as §1, §2

[8] = tested on: wild-type HCV genotype 1b replicon; test: Transient transfection replicon assay in Huh 7 cells (luciferase, 72 hours), wild-type; type: cell-based
HCV genotype 1 = test: Phase 2a clinical trial, miravirsen monotherapy; type: in vivo, human; conditions: for mean of the maximum HCV RNA decline from baseline: 5 weekly doses subcutaneously over 29 days, chronic HCV genotype 1 patients
Procedure: Thirty-six treatment-naïve chronic HCV genotype 1 infected patients were enrolled into 3 sequential dosing cohorts and received 5 weekly doses of miravirsen 3, 5, or 7 mg/kg (n=27) or placebo (n=9) subcutaneously over 29 days and were followed up until week 18.

[9] = chronic HCV genotype 1 infected patients

Compound: 5′-^mCs^ocsAs^otstsGs^oTs^ocsas^mCs^oas^mCs^ots^mCs^omC^o-3′ (CCATTGTCACACTCC; all phosphorothioate, sugars by position and methylation of C not given here; further chemistry not fully specified) [miravirsen]
- metabolism by cytochrome 450 mechanisms (cytochrome 450): not metabolized by cytochrome 450 mechanisms
- fold changes in resistance ([1]; all drug-resistant HCV variants tested): less than 2 fold
- antiviral activity against drug-resistant replicons ([1]; replicons resistant to NS3, NS5A and NS5B inhibitors): broad antiviral activity
- therapeutic index [2]: at least an order of magnitude greater than interferon alpha-2b
- activity against HCV genotypes in vitro (all HCV genotypes): activity against all HCV genotypes in vitro; also recorded: effective against all HCV genotypes in vitro
- HCV RNA suppression in vivo (HCV): long-lasting HCV RNA suppression without emergence of resistance
- fold change in susceptibility, NS5B S282T [3]: 1.9 (2.6, 1.1) fold
- fold change in susceptibility, NS5A Y93H [4]: 0.9 (0.8, 0.9) fold
- fold change in susceptibility, NS3 R155K [5]: 1.2 (1.9, 0.4) fold
- fold change in susceptibility, NS5B M423I [6]: 1.7 (2.3, 1.0) fold
- fold change in susceptibility, NS3 A156T [7]: 1.0 (1.4, 0.5) fold
- EC50 ([8]; Huh 7 cells preincubated with miravirsen 24 hours before electroporation with wild-type RNA, read-out: EC50): 25.6 µM
- EC50 ([8]; wild-type HCV, transient transfection assays, read-out: average EC50): 36.7 µM
- mean of the maximum HCV RNA decline from baseline (HCV genotype 1; 3 mg/kg): 1.2 log10IU/mL
- patients who achieved undetectable HCV RNA (HCV genotype 1; 5 mg/kg cohort): One
- mean of the maximum HCV RNA decline from baseline (HCV genotype 1; 5 mg/kg): 2.9 log10IU/mL
- patients who achieved undetectable HCV RNA (HCV genotype 1; 7 mg/kg cohort): four
- mean of the maximum HCV RNA decline from baseline (HCV genotype 1; 7 mg/kg): 3.0 log10IU/mL
- dose-limiting adverse events (HCV genotype 1; 3, 5 or 7 mg/kg): no dose-limiting adverse events
- escape mutations in the HCV genome miR-122 binding sites (HCV genotype 1; 3, 5 or 7 mg/kg): no escape mutations were observed
- emergence of viral resistance (HCV genotype 1; [9]): not seen
- reduction in HCV RNA (HCV genotype 1; [9]): prolonged dose-dependent reductions in HCV RNA levels
- safety and tolerability (HCV genotype 1; [9]): safe, well-tolerated
- reduction in HCV RNA (HCV genotype 1; chronic HCV genotype 1 infected patients, listed as Miravirsen): dose-dependent reduction in HCV RNA that was prolonged well beyond the end of active therapy
- HCV titre (HCV genotype 1; four week clinical trial to assess safety and tolerability): below detection

Compound: CCC[C@H](NC(=O)[C@@H]1[C@H]2CCC[C@H]2CN1C(=O)[C@@H](NC(=O)[C@@H](NC(=O)c1cnccn1)C1CCCCC1)C(C)(C)C)C(=O)C(=O)NC1CC1 [Telaprevir, (1S,3aR,6aS)-2-[(2S)-2-[[(2S)-2-Cyclohexyl-2-(pyrazine-2-carbonylamino)acetyl]amino]-3,3-dimethylbutanoyl]-N-[(3S)-1-(cyclopropylamino)-1,2-dioxohexan-3-yl]-3,3a,4,5,6,6a-hexahydro-1H-cyclopenta[c]pyrrole-1-carboxamide]
- fold change in susceptibility, NS5B S282T [3]: 1.0 (1.0, 1.0) fold
- fold change in susceptibility, NS3 R155K [5]: 4.6 (5.0, 4.2) fold
- fold change in susceptibility, NS3 R155K ([5]; listed as telaprevir): 4.6 fold
- fold change in susceptibility, NS3 A156T [7]: 36.1 (46.9, 25.2) fold
- fold change in susceptibility, NS3 A156T ([7]; listed as telaprevir): 36.1 fold

Reference: US20140113958A1, “HCV Combination Therapy” (priority 2011, published 2014)
